pEC50, pIC50: −log10 of the molar value.
Key:
NOD2 cellular signaling = test: NOD2 signaling assay in HEK-Blue cells (NFkB-SEAP reporter, L18-MDP stimulated); type: cell-based; details: HEK-Blue cells expressing human NOD2, L18-MDP stimulation, 8 h; NI = no inhibition observed; read-out: EC50 HEK Blue RIPK2
Description: HEK-Blue cells expressing human NOD2 and NFkB-SAEP reporter (Invivogen) are seeded into 96 well clear plates at 7.5×10^3 cells per well in 100 μL of DMEM media supplemented with 10% FBS and 1% antibiotic-antimycotic mix. Cells are allowed to attach for 48 h in 5% CO2 tissue culture incubator at 37° C. On the morning of the experiment, media in the wells is replaced with 100 μL of HEK-Blue detection media (Invivogen). Cells are treated with the inhibitors, diluted in DMSO (0.5 μL per well) for 15 min in 5% CO2 tissue culture incubator at 37° C. After that, cells are stimulated by the addition of 1 ng/well L18-MDP (Invivogen). Cells are incubated in 5% CO2 tissue culture incubator at 37° C. for 8 h and absorbance, corresponding to the SEAP in the media, is determined in Wallac3V plate reader (Perkin Elmer). Inhibition, %=(1−((sample signal-unstimulated and DMSO treated cells)/(L18-MDP stimulated and DMSO treated cells—unstimulated and DMSO treated cells)))*100.

[1] = molecular target: Recombinant RIPK2 protein (Homo sapiens, UniProt O43353); test: Receptor Interacting Protein Kinase 2 (RIPK2) enzyme assay (ADP-Glo); type: biochemical; details: 2 h at room temperature
Excerpt: Receptor Interacting Protein Kinase 2 (RIPK2) Enzyme Assay
Inhibition, %=(1−(test signal/maximal signal))*100.

human ALK2 = molecular target: T1, human ALK2 (Homo sapiens, UniProt Q04771); test: Activin-Like Kinase 2 (ALK2) enzyme assay (33P-casein); type: biochemical; details: casein 1 mg/mL, 30 min; NI = no inhibition observed
T1 sequence (Q04771 21-509): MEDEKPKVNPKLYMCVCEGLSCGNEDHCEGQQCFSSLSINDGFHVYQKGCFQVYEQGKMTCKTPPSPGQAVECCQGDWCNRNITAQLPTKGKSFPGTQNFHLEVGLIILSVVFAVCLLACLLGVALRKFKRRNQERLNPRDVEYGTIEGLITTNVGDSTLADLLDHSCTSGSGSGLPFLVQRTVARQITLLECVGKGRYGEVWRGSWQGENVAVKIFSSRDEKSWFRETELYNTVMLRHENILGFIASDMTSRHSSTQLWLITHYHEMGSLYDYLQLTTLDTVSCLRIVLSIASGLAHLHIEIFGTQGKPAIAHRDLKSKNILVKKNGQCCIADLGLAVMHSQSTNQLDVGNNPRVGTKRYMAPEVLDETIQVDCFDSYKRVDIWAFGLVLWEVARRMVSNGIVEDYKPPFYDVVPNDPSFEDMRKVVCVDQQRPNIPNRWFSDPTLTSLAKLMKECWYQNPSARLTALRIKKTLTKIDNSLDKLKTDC
Description: Activin-Like Kinase 2 (ALK2) Enzyme Assay
Enzyme inhibitory activity was evaluated in a standard kinase enzyme assay by incubating human ALK2 with the protein substrate casein (1 mg/mL) and γ-^33ATP (10 µM) in the presence of various concentrations of test compounds (10 nM-100 μM). After 30 min the amount of ^33P-casein was determined.

Sequence of Recombinant RIPK2 protein (O43353 whole entry): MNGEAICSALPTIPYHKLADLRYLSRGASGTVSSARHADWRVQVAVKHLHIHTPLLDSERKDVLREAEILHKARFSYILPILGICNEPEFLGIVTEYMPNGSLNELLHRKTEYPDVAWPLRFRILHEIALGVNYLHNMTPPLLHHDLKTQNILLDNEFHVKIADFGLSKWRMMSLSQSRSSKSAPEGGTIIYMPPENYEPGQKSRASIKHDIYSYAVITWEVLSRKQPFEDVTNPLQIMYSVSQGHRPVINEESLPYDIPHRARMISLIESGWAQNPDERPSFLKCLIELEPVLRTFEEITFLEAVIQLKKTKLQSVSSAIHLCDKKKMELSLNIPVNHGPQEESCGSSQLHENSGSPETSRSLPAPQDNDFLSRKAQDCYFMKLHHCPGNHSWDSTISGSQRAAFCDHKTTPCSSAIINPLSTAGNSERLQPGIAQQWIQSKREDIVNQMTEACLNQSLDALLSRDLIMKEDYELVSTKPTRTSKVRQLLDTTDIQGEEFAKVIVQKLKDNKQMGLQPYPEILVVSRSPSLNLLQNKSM

pEC50 (NOD2 cellular signaling)	pIC50 [1]	pIC50 (human ALK2)	SMILES
6.45	7.52	< 4.00	CS(=O)(=O)c1cccc(Nc2ncc3cc(-c4ccccc4Cl)ccc3n2)c1 [UH15PN2, 6-(2-chlorophenyl)-N-(3-(methylsulfonyl)phenyl)quinazolin-2-amine]
6.39	7.56	< 4.00	Cn1c(=O)c(-c2ccccc2Cl)cc2cnc(Nc3cccc(S(C)(=O)=O)c3)cc21 [UH15_32, 3-(2-chlorophenyl)-1-methyl-7-((3-(methylsulfonyl)phenyl)amino)-1,6-naphthyridin-2(1H)-one]
6.35	7.60		CS(=O)(=O)c1cccc(Nc2ncc3cc(-c4cccnc4)ccc3n2)c1 [UH15PN6, N-(3-(methylsulfonyl)phenyl)-6-(pyridin-3-yl)quinazolin-2-amine]
6.77	7.66	6.49	CCN(CC)CCOc1ccc(Nc2ncc3cc(-c4ccccc4Cl)ccc3n2)cc1 [UH15PN1, 6-(2-chlorophenyl)-N-(4-(2-(diethylamino)ethoxy)phenyl)quinazolin-2-amine]
5.71	7.38		CS(=O)(=O)c1cccc(Nc2ncc3cc(-c4ccccn4)ccc3n2)c1 [UH15PN5, N-(3-(methylsulfonyl)phenyl)-6-(pyridin-2-yl)quinazolin-2-amine]
7.47	7.45	5.96	Cn1c(=O)c(-c2ccccc2Cl)cc2cnc(Nc3cccnc3)nc21 [UH15_34, 6-(2-chlorophenyl)-8-methyl-2-(pyridin-3-ylamino)pyrido[2,3-d]pyrimidin-7(8H)-one]
7.26			Cn1c(=O)c(-c2ccccc2Cl)cc2cnc(Nc3cccc(N4CCNCC4)c3)cc21 [UH15_25, 3-(2-chlorophenyl)-1-methyl-7-((3-(piperazin-1-yl)phenyl)amino)-1,6-naphthyridin-2(1H)-one]
9.70	7.67	6.65	Cn1c(=O)c(-c2ccccc2Cl)cc2cnc(Nc3cccc(N4CCNCC4)c3)nc21 [UH15_33, 6-(2-chlorophenyl)-8-methyl-2-((3-(piperazin-1-yl)phenyl)amino)pyrido[2,3-d]pyrimidin-7(8H)-one]
6.02	7.06		Cn1c(=O)c(-c2ccccc2Cl)cc2cnc(Nc3ccccn3)nc21 [UH15_35, 6-(2-chlorophenyl)-8-methyl-2-(pyridin-2-ylamino)pyrido[2,3-d]pyrimidin-7(8H)-one]
	7.53	5.07	CS(=O)(=O)c1cccc(Nc2ncc3cc(-c4ccc(O)cc4)ccc3n2)c1 [UH15PN3, 4-(2-((3-(methylsulfonyl)phenyl)amino)quinazolin-6-yl)phenol]

From patent US12012402B2, “Pyrido[2,3-d]pyrimidin-7-ones and related compounds as inhibitors of protein kinases” (UNIVERSITY OF HOUSTON SYSTEM, priority 2017, dated 2024)
